{"source": "patent US12533341B2", "about": "“Small molecule inhibitors of voltage-gated sodium channel 1.7 and methods of using same” (Duke University, priority 2019, dated 2026)", "key": {"[1]": {"test_system": "neuropathic pain (CCI, SNI)", "test": "Neuropathic pain models (CCI, SNI)", "assay_type": "in vivo, mouse", "conditions": "intrathecally at a dose of 30 mg/kg; CCI and SNI models", "description": "Neuropathic pain is produced by chronic constriction injury (CCI) of the sciatic nerve. Mice are anesthetized with isoflurane, and three ligatures are 7-0 prolene placed around the nerve proximal to the trifurcation (1 mm between ligatures). The ligatures are loosely tied until a short flick of the ipsilateral hind limb is observed (Chen, Ji, et al. 2015; J Clin. Invest. 125(8):3226-3240).\nSNI model. Neuropathic pain is produced by spared nerve injury (SNI). SNI surgery is conducted with a 5.0 silk tight ligation of the tibial and common peroneal nerves followed by transection and removal of a 3-5 mm nerve portion.\nAnimals in the neuropathic pain models are dosed with N-substituted indoles according to the present disclosure [N-(methylsulfonyl)-3-(3-oxo-1-(3-phenoxyphenyl)-3-((2-(pyrrolidin-1-yl)ethyl)amino)propyl)-1H-indole-1-carboxamide (10); (Z)-N-(5-((3-(3-oxo-1-(3-phenoxyphenyl)-3-((2-(pyrrolidin-1-yl)ethyl)amino)propyl)-1H-indol-1-yl)sulfonyl)-1,3,4-thiadiazol-2-yl)acetimidic acid (11); and 3-(3-phenoxyphenyl)-N-(2-(pyrrolidin-1-yl)ethyl)-3-(1-(thiazol-2-ylsulfonyl)-1H-indol-3-yl)propanamide (12)]. The compounds are synthesized according to the route outlined in Scheme 1 and are administered intrathecally at a dose of 30 mg/kg."}, "acute and chronic itch": {"test_system": "acute and chronic itch", "test": "Itch models (acute, dry skin, allergic contact dermatitis)", "assay_type": "in vivo, mouse", "conditions": "intrathecally at a dose of 30 mg/kg, dry skin and ACD itch models", "description": "Mice are habituated to the testing environment daily for at least two days before analysis. Mice are shaved at the back of the neck the day before injection. Mice are left in small plastic chambers (14×18×12 cm) on an elevated metal mesh floor and allowed 30 min for habituation before examination. To elicit acute itch, pruritic agent 48/80 or chloroquine are injected intradermally in the nape of the neck and the number of scratched are counted every 5 min for 30 min after the injection. A scratch is counted when a mouse lifts its hindpaw to scratch the shaved region and returns the paw to the floor or to the mouth for the licking (Liu, et al. 2012; J Cin. Invest. 122(6):2195-2207).\nTo induce chronic itch, the neck skin is painted with acetone and diethyl ether (1:1) followed by water twice a day for 4 days, and spontaneous itch is examined by counting the number of scratches for 60 minutes on day 5. (Liu, et al. 2012, supra).\nChronic itch is induced by applying the hapten 1-fluoro-2,4-dinitrobenzene (DNFB) onto the back skin. (Liu, Ji, et al. 2016; Pain. 157(4):806-817; Zhao, et al. 2013; J Clin. Invest. 123(11):4769-4780). DNFB is dissolved in a mixture of acetone:olive oil (4:1) for sensitization and challenge. One day before sensitization, the surface of the abdomen and the nape of the neck are shaved. Mice are sensitized with 0.5% DNFB solution (50 μL) by topical application to a ˜2 cm^2 area of abdomen skin. Five days later, mice are challenged with 0.2% DNFB solution (30 μL) by painting the shave neck area, then every other day for one week. Spontaneous scratching behaviors are videoed for 1 hour, at 24 hours after each challenge. The behavioral tests of itch are performed blindly.\nAnimals in the itch models are dosed with N-substituted indoles 10, 11, and 12, which are administered intrathecally at a dose of 30 mg/kg."}, "human Nav1.7": {"target": "human Nav1.7 (Homo sapiens, UniProt Q15858)", "sequence (Q15858 whole entry)": "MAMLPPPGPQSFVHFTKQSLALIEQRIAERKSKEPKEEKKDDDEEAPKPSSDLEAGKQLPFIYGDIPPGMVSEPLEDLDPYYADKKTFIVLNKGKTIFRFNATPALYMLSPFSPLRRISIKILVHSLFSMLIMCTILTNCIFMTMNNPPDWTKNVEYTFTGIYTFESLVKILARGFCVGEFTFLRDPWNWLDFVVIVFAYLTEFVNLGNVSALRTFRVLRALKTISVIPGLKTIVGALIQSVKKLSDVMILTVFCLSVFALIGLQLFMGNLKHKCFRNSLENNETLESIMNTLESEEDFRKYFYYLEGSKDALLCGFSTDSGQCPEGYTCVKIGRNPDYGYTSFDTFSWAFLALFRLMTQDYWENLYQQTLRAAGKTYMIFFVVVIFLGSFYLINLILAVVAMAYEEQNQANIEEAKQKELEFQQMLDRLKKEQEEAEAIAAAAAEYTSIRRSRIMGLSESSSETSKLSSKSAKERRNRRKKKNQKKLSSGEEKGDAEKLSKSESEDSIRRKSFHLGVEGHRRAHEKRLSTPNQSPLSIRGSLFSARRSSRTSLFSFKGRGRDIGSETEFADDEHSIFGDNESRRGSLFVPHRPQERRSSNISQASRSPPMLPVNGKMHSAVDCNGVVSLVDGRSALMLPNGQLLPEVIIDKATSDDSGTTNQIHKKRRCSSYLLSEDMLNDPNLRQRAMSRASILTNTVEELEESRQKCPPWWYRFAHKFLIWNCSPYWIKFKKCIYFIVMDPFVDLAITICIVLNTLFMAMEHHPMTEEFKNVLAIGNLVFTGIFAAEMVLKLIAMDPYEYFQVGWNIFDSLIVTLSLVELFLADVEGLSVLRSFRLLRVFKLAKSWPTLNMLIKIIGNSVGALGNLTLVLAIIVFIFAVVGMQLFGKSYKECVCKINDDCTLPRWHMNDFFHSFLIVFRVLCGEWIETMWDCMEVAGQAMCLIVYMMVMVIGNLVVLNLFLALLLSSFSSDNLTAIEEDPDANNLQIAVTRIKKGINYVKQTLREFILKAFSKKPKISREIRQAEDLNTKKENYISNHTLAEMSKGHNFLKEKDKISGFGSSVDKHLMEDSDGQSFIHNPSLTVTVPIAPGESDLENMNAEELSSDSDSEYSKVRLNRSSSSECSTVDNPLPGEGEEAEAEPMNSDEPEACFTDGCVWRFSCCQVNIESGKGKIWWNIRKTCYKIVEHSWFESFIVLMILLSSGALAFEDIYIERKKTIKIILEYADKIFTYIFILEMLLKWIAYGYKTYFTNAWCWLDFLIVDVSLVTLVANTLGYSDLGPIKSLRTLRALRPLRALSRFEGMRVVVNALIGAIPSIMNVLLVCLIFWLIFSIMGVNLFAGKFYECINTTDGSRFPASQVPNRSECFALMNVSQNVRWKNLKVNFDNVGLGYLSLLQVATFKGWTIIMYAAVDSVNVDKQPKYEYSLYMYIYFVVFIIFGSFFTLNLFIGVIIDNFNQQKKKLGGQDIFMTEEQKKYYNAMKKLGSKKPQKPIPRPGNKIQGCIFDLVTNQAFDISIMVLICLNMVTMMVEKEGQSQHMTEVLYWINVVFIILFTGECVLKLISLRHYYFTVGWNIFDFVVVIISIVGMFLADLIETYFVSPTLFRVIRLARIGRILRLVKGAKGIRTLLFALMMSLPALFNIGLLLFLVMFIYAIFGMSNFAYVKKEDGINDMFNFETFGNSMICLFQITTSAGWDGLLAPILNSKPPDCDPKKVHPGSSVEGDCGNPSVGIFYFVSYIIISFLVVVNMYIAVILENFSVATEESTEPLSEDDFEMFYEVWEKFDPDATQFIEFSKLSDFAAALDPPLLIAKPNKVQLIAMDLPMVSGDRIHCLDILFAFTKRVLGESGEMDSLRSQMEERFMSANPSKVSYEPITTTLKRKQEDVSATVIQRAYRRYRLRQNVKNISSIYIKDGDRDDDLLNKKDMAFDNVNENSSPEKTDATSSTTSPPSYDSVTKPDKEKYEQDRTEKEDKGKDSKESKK", "test": "Whole-cell patch-clamp of sodium currents in Nav1.7-expressing HEK293 cells", "assay_type": "cell-based", "conditions": "10 μM, screen of compounds 1-9 (FIG. 3)", "description": "HEK-hNav1.7 stable cell line was purchased from SB Drug Discovery (Glasgow, United Kingdom). Human embryonic kidney 293 (HEK293) cells were obtained from the ATCC and maintained at the Duke cell culture facility. Cells were cultured in high-glucose (4.5 g/L) DMEM containing 10% (v/v) FBS (Gibco) and streptomycin/penicillin. For Nav1.7-expressing HEK293 cells, an additional antibiotic, blasticidin, was included. hNav1.5 transfection was performed by Lipofectamine 2000 at 70% confluence using 2 μg cDNA. The transfected cells were cultured in the same growth medium for 48 h before biochemical or electrophysiological studies.\nWhole-cell patch-clamp recordings were conducted at room temperature. Patch pipettes pulled from borosilicate capillaries (World Precision Instruments, Inc., Sarasota, FL) were used to record transient Na currents with an Axopatch-200B amplifier with a Digidata 1440A (Axon Instruments, Sunnyvale CA). The resistance was set to 3-4 MΩ when filled with pipette solution. The pipette solution contained (in mmol/L): CsCl 130, NaCl 9, MgCl2 1, EGTA 10, HEPES 10, adjusted to pH 7.3 with CsOH. The external solution for recording transient Na^+ currents contained (in mmol/L): NaCl 131, TEACl 10, CsCl 10, CaCl2) 1, MgCl2 2, CdCl2 0.3, 4-aminopyridine 3, HEPES 10, glucose 10, adjusted to pH 7.4 with NaOH. The recording chamber (300 μL) was continuously superfused at 3-4 mL/min. Series resistance was compensated (>80%) and leak subtraction was performed. Data were low-pass-filtered at 2 kHz and sampled at 10 kHz. pClamp10 (Axon Instruments) software was used during experiments and analysis. In voltage-clamp experiments, transient Na+ currents were evoked by a test pulse to 0 mV from the holding potential (−70 mV).\nThe effects of the 9 selected compounds on Nav1.7 channel activities were tested using patch-clamp recordings on human Nav1.7 expressing HEK293 cells (FIG. 3, FIG. 4). In each cell, sodium currents were recorded for 13 min, and candidate inhibitors (10 μM) were incubated for 2 min after 2 min baseline recording (FIG. 3). Compound was applied at the beginning of the second minute for two minutes (denoted as a horizontal line above the X-axis). Sodium currents were recorded at equal intervals (every 20 seconds, 40 recordings per compound per cell). Data was analyzed with a two-way repeated measures ANOVA, followed by a post-hoc test of the last timepoint Bonferroni-corrected for 9 pairwise comparisons (each compound was compared with control). […] Sample size n=3 to 7 cells per group.\nFor FIG. 4C, sample size was n=5 to 7 cells per group. Compound was applied at the beginning of the second minute for two minutes (denoted as a horizontal line above the X-axis). Sodium currents were recorded every 20 seconds."}, "[2]": {"test_system": "paclitaxel-induced mechanical allodynia", "test": "Paclitaxel-induced neuropathic pain model (von Frey)", "assay_type": "in vivo, mouse", "conditions": "intrathecal 10 nmol and 30 nmol, mice", "description": "Intraperitoneal injection of paclitaxel (PTX, 2 mg/kg for multiple injections at day 0, 2, 4, and 6) was given to generate chemotherapy-associated neuropathic pain. Neuropathic pain behavior was tested 3 weeks after PTX injection using a von Frey test. Briefly, animals were habituated to the testing environment daily for at least 2 days before the baseline testing. Animals were confined in boxes placed on an elevated metal mesh floor and the hind paws were stimulated with a series of von Frey hairs with logarithmically increasing stiffness (0.02-2.56 g, Stoelting), presented perpendicularly to the central plantar surface. The 50% paw withdrawal threshold was determined by an up-down method."}}, "note": "Entries after “also recorded” stand apart in the source; their conditions may differ.", "data": [{"smiles": "O=C(CC(c1cccc(Oc2ccccc2)c1)c1cn(S(=O)(=O)c2nccs2)c2ccccc12)NCCN1CCCC1", "note": "(stereo not shown) [Compound 12, 3-(3-phenoxyphenyl)-N-(2-(pyrrolidin-1-yl)ethyl)-3-(1-(thiazol-2-ylsulfonyl)-1H-indol-3-yl)propanamide]", "values": [{"measurement": "reduction of pain in neuropathic pain models", "setting": "[1]", "value": "Reduction of pain is observed"}, {"measurement": "reduction of scratching in itch models", "setting": "acute and chronic itch", "value": "Reduction of scratching is observed"}]}, {"smiles": "CC(=O)Nc1nnc(S(=O)(=O)n2cc(C(CC(=O)NCCN3CCCC3)c3cccc(Oc4ccccc4)c3)c3ccccc32)s1", "note": "(stereo not shown) [Compound 11, (Z)-N-(5-((3-(3-oxo-1-(3-phenoxyphenyl)-3-((2-(pyrrolidin-1-yl)ethyl)amino)propyl)-1H-indol-1-yl)sulfonyl)-1,3,4-thiadiazol-2-yl)acetimidic acid]", "values": [{"measurement": "reduction of pain in neuropathic pain models", "setting": "[1]", "value": "Reduction of pain is observed"}, {"measurement": "reduction of scratching in itch models", "setting": "acute and chronic itch", "value": "Reduction of scratching is observed"}]}, {"smiles": "COc1ccc(Cn2cc(C(CC(=O)NCc3ccccc3)c3cccc(OCc4ccccc4)c3)c3ccccc32)cc1", "note": "(stereo not shown) [Compound 7]", "values": [{"measurement": "difference in relative current from the control group at the last measurement", "setting": "human Nav1.7", "value": 0.35}]}, {"smiles": "CS(=O)(=O)NC(=O)n1cc(C(CC(=O)NCCN2CCCC2)c2cccc(Oc3ccccc3)c2)c2ccccc21", "note": "(stereo not shown) [Compound 10, N-(methylsulfonyl)-3-(3-oxo-1-(3-phenoxyphenyl)-3-((2-(pyrrolidin-1-yl)ethyl)amino)propyl)-1H-indole-1-carboxamide]", "values": [{"measurement": "reduction of pain in neuropathic pain models", "setting": "[1]", "value": "Reduction of pain is observed"}, {"measurement": "reduction of scratching in itch models", "setting": "acute and chronic itch", "value": "Reduction of scratching is observed"}]}, {"smiles": "Nc1[nH]ncc1-c1cc(Cl)ccc1Oc1cc(F)c(S(=O)(=O)Nc2cscn2)cc1Cl", "note": "[PF-05089771, reference compound]", "values": [{"measurement": "anti-allodynic effect in the paclitaxel model", "setting": "[2]", "value": "failed to produce any anti-allodynic effect; also recorded: did not produce anti-allodynia effects"}]}, {"smiles": "COc1ccc(Cn2cc(C(CC(=O)NCc3ccco3)c3cccc(Oc4ccccc4)c3)c3ccccc32)cc1", "note": "(stereo not shown) [Compound 8]", "values": [{"measurement": "difference in relative current from the control group at the last measurement", "setting": "human Nav1.7", "value": 0.36}]}, {"smiles": "Cc1ccc(Cn2cc(C(CC(=O)NCc3ccncc3)c3cccc(Oc4ccc(Cl)cc4)c3)c3ccccc32)cc1", "note": "(stereo not shown) [Compound 5]", "values": [{"measurement": "difference in relative current from the control group at the last measurement", "setting": "human Nav1.7", "value": 0.29}]}]}
